Test results from ChEMBL document CHEMBL1201862, “PubChem BioAssay data set” (2004).
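Step 1: Grow cells in 96-well plates. Step 2: Expose to compound for 48 hours at 5 concentrations. Step 3: Interpolate endpoints linearly; if unreached, use highest concentration. At the GI50, growth is halved.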 Activity calls are given as the source filed them. Cut-off read from the data, not from the text of the source: active = GI50 up to about 1.1 µM and inactive = higher.

Tests used:
Test in all cases: DTP human tumour cell line panel, 48 h
[1] = tested on: 786-0
[2] = tested on: CCRF-CEM
[3] = tested on: COLO 205
[4] = tested on: DLD-1
[5] = tested on: EKVX
[6] = tested on: HOP-62
[7] = tested on: IGROV-1
[8] = tested on: K562
[9] = tested on: LXFL 529
[10] = tested on: MOLT-4
[11] = tested on: RXF 393
[12] = tested on: SF-295
[13] = tested on: SK-MEL-5
[14] = tested on: SNB-19
[15] = tested on: U-251
[16] = tested on: HOP-92
[17] = tested on: BT-549
[18] = tested on: DU-145
[19] = tested on: MDA-MB-435
[20] = tested on: NCI/ADR-RES

Measured: GI50

COC(=O)CC1NC(=O)C1C(C)(OC)OC (stereo not given)
inactive: [1] > 100 µM | [2] > 100 µM | [3] > 100 µM | [4] > 100 µM | [5] > 100 µM | [6] > 100 µM | [7] > 100 µM | [8] > 100 µM | [9] > 100 µM | [10] > 100 µM | [11] > 100 µM | [12] > 100 µM | [13] > 100 µM | [14] > 100 µM | [15] > 100 µM

Cc1cc2c(=O)cc(-c3ccc(Cl)cc3Cl)oc2c(C(=O)O)c1C
inactive: [1] > 100 µM | [2] > 100 µM | [3] > 100 µM | [4] > 100 µM | [5] > 100 µM | [7] > 100 µM | [8] > 100 µM | [9] > 100 µM | [10] > 100 µM | [11] > 100 µM | [12] > 100 µM | [13] > 100 µM | [14] > 100 µM | [15] > 100 µM

C1=CC=C2NCCC/N=C3/C=CC=CC=C3NCCC/N=C\2C=C1
inactive: [1] > 100 µM | [2] > 100 µM | [3] > 100 µM | [4] > 100 µM | [5] > 100 µM | [6] > 100 µM | [16] > 100 µM | [7] > 100 µM | [8] > 100 µM | [9] > 100 µM | [10] > 100 µM | [12] > 100 µM | [13] > 100 µM | [14] > 100 µM | [15] > 100 µM

COC1OC2COC(c3ccccc3)OC2C(O)C1Br (stereo not given)
inactive: [1] > 100 µM | [2] > 100 µM | [3] > 100 µM | [4] > 100 µM | [6] > 100 µM | [16] > 100 µM | [7] > 100 µM | [8] > 100 µM | [9] > 100 µM | [10] > 100 µM | [11] > 100 µM | [12] > 100 µM | [13] > 100 µM | [14] > 100 µM | [15] > 100 µM

O=C(NC(=O)c1cn(CCN2CCN(C(=O)NCCCCCCNC(=O)N3CCN(CCn4cc(C(=O)NC(=O)OCc5ccccc5)c(=O)[nH]c4=O)CC3)CC2)c(=O)[nH]c1=O)OCc1ccccc1
inactive: [1] > 100 µM | [2] > 100 µM | [3] > 100 µM | [4] > 100 µM | [5] > 100 µM | [6] > 100 µM | [16] > 100 µM | [7] > 100 µM | [8] > 100 µM | [10] > 100 µM | [11] > 100 µM | [12] > 100 µM | [13] > 100 µM | [14] > 100 µM | [15] > 100 µM

COc1cc2nc(Sc3c([N+](=O)[O-])ncn3C)[nH]c2cc1OC
inactive: [1] 71 µM | [3] 13.6 µM | [4] 14 µM | [5] 21.2 µM | [6] > 100 µM | [16] 16.5 µM | [7] 14.2 µM | [9] 12.4 µM | [10] 12.5 µM | [11] 16.1 µM | [12] > 100 µM | [13] 18.9 µM | [14] 26.1 µM | [15] 31.3 µM

CC1=C(c2ccccc2)CON(c2ccccc2)C1
inactive: [1] 36.8 µM | [2] 25.1 µM | [3] 33.1 µM | [5] 46.6 µM | [6] 66.2 µM | [7] 43.3 µM | [8] 30.1 µM | [9] 29.1 µM | [10] 29.6 µM | [11] 16.9 µM | [12] 30.6 µM | [13] 20.5 µM | [14] 39.4 µM | [15] 25.8 µM

O=C(O)CCCNS(=O)(=O)c1ccccc1
inactive: [1] > 100 µM | [2] > 100 µM | [3] > 100 µM | [4] > 100 µM | [5] > 100 µM | [16] > 100 µM | [7] > 100 µM | [8] > 100 µM | [9] > 100 µM | [10] > 100 µM | [11] > 100 µM | [12] > 100 µM | [13] > 100 µM | [14] > 100 µM | [15] > 100 µM

COc1ccc2c3c([nH]c2c1[N+](=O)[O-])C(C)N(Cc1ccc([N+](=O)[O-])cc1)CC3 (stereo not given)
inactive: [1] > 100 µM | [2] 6.76 µM | [3] 14 µM | [5] 37.6 µM | [6] > 10 µM | [7] 39.8 µM | [8] 3.22 µM | [9] 5.7 µM | [10] 2.99 µM | [11] 10.9 µM | [12] 16.3 µM | [14] 19.3 µM | [15] 15.7 µM

COC1CC2C3/C(=N/Nc4ccc([N+](=O)[O-])cc4[N+](=O)[O-])CCC2(C)C3C1 (stereo not given)
inactive: [1] > 10 µM | [3] > 10 µM | [4] > 10 µM | [6] > 10 µM | [16] > 10 µM | [7] > 10 µM | [8] 75.5 µM | [9] > 10 µM | [10] 42.3 µM | [12] > 10 µM | [13] > 10 µM | [14] > 10 µM | [15] > 10 µM

NCCCNC(=O)c1csc(NC(=O)c2csc(NC(=O)CCCN)n2)n1
inactive: [1] > 100 µM | [2] > 100 µM | [3] > 100 µM | [4] > 100 µM | [5] > 100 µM | [6] > 100 µM | [16] > 100 µM | [7] > 100 µM | [8] > 100 µM | [9] > 100 µM | [10] > 100 µM | [12] > 100 µM | [13] > 100 µM | [15] > 100 µM

CCOC(=O)C(CCN1CCC2(CC1)C(=O)N(C)CN2c1ccccc1)C(=O)OCC
inactive: [1] > 100 µM | [17] > 100 µM | [2] > 100 µM | [3] > 100 µM | [18] > 100 µM | [5] > 100 µM | [6] > 100 µM | [16] > 100 µM | [7] > 100 µM | [8] > 100 µM | [19] > 100 µM | [10] > 100 µM | [20] > 100 µM | [11] > 100 µM | [12] > 100 µM | [13] > 100 µM | [14] > 100 µM | [15] > 100 µM

CC(O)CC(=O)CO[C@H]1[C@H](O)[C@@H](O)[C@@H](O)[C@@H]2NC(=O)c3c(cc4c(c3O)OCO4)[C@H]21 (stereo not given in full)
inactive: [20] 1.29 µM
active: [1] 0.0439 µM | [17] 0.0509 µM | [2] 0.0184 µM | [3] 0.0332 µM | [18] 0.0214 µM | [5] 0.0266 µM | [6] 0.0289 µM | [16] 0.0377 µM | [7] < 0.0207 µM | [8] 0.0392 µM | [19] 0.0386 µM | [10] 0.0313 µM | [11] 0.0208 µM | [12] 0.0299 µM | [13] 0.0137 µM | [14] < 0.0156 µM | [15] < 0.015 µM

CN1N=C2c3ccccc3CC[C@H]2C1c1cccc(O)c1 (stereo not given in full)
inactive: [1] > 100 µM | [2] > 100 µM | [3] > 100 µM | [4] > 100 µM | [5] > 100 µM | [6] > 100 µM | [16] > 100 µM | [7] > 100 µM | [8] 74.1 µM | [9] 99.5 µM | [10] > 100 µM | [11] 77.4 µM | [12] > 100 µM | [14] > 100 µM | [15] > 100 µM

O=[N+]([O-])c1ccc(CSC2=C(c3ccc(Cl)cc3)S/C(=C3\SC(SCc4ccc([N+](=O)[O-])cc4)=C(c4ccc(Cl)cc4)S3)S2)cc1
active: [16] < 0.01 µM
inactive: [1] > 100 µM | [17] > 100 µM | [2] > 100 µM | [3] > 100 µM | [18] > 100 µM | [5] > 100 µM | [6] > 100 µM | [7] > 100 µM | [8] > 100 µM | [19] > 100 µM | [10] > 100 µM | [20] > 100 µM | [11] > 100 µM | [12] > 100 µM | [13] > 100 µM | [14] > 100 µM | [15] > 100 µM

CCCCn1c2c(n(CCCC)c1=[Se])-c1c(n(CCCC)c(=[Se])n1CCCC)S[Se][Se]S2
inactive: [1] 29.4 µM | [17] 27.7 µM | [2] 3.78 µM | [3] 8.65 µM | [18] 25 µM | [5] 38.5 µM | [6] 13.7 µM | [16] 2.01 µM | [7] 7.1 µM | [8] 9.84 µM | [19] 49.9 µM | [10] 12.6 µM | [20] 19.5 µM | [11] 21.8 µM | [12] 4.55 µM | [13] 16.6 µM | [14] 17 µM | [15] 11.4 µM

CC(=O)Nc1ccc(C(=O)N2N=C(C)/C(=C/c3cccc([N+](=O)[O-])c3)C2=O)cc1
inactive: [1] > 100 µM | [2] > 100 µM | [3] > 100 µM | [4] > 100 µM | [5] > 100 µM | [6] > 100 µM | [8] > 100 µM | [10] > 100 µM | [12] > 100 µM | [13] > 100 µM | [14] > 100 µM
